The test system of test [1] is methylated UCHL1 promoter (pUCHL1) in HCT116 cells. Put plainly: UCHL1 promoter demethylation assay (EGFP induction, FACS). The format is cell-based, human. To be noted: five days. As to the method:
The assay was performed as described in [29]. Briefly, human colon cancer HCT116 (ATCC, VA, USA) cells were grown in Dulbecco’s Modified Eagle Medium (DMEM; Euroclone, Milan, Italy) supplemented with 10% fetal bovine serum (FBS; Euroclone, Milan, Italy), 2 mM L-glutamine (Euroclone), and antibiotics (100 U/mL penicillin, 100 µg/mL streptomycin) (Euroclone). The pUMLIEP vector (composed by MetLuc-IRES-EGFP construct upon the control of the ubiquitin carboxyl-terminal hydrolase L1 (UCHL1)) was linearized and methylated by with ClaI and SssI-methylase enzymes (New England Biolabs, Milan, Italy). After, methylated pUMLIEP was transfected into HCT116 cells following the protocol described in [30]. […] On day 5, cells were observed under by a fluorescent microscope (Cytation 5 Cell Imaging Multi-Mode Reader (BioTeK Milan, Italy) and BD Accuri flow cytometers. Nuclei were counterstained with DAPI (10 µg/mL, Invitrogen, Tournai, Belgium).

Another test concerns the target T1, DNMT1 protein (Homo sapiens, UniProt P26358).
T1 construct: endogenous in cells; host or cells: HCT116
Put plainly: Western blot of DNMT1 protein level in HCT116 cells. The class given is cell-based. To be noted: HCT116, 1 µM, 24 h. The text has this: Cells were lysed in Laemmli buffer; subsequently the proteins were resolved by sodium dodecyl sulphate-polyacrylamide gel electrophoresis and transferred to a 0.45 µm nitrocellulose membrane (Bio-Rad Laboratories, Hercules, CA, USA). The following primary antibodies were used for immunoblotting: α-DNMT1 (Novus Biologicals, Littleton, CO, USA). α-DNMT3a (SantaCruz Bio-technologies, CA, USA) and α-GAPDH (Millipore Corp., Bedford, MA USA), used as a loading control. The immune complexes were detected with horseradish peroxidase-conjugated species-specific secondary antiserum (Bio-Rad Laboratories, Hercules, CA, USA) then by enhanced chemiluminescence reaction (Bio-Rad Laboratories, Hercules, CA, USA). Densitometric analysis of protein expression was performed by using the Fiji-Image J image processing package.
On the technique in general: Immunoblotting shows a protein as a band on a membrane.

For a further test, the target named is IKKalpha (h) (Homo sapiens, UniProt O15111). Kind of test: Kinase inhibitory assay (panel). The format is biochemical. To be noted: read-out: % inhibition at 10 µM. The protocol: (§1) Experimental procedure of kinase inhibitory assays
(§2) The test compound, reference compound or water (control) were mixed with the enzyme (for the exact amount see table below) in the appropriate buffer. Thereafter, the reaction was initiated by adding the required amount of the appropriate substrate and of ATP, and the mixture is incubated at room temperature (variable reaction time, see table below). For control basal measurements, the enzyme was omitted from the reaction mixture. Following incubation, the reaction was stopped by adding 13 mM
(§3) EDTA. After 5 min, the proper antibody labelled with europium chelate was added. After 60 more min, the fluorescence transfer was measured at λex=337 nm, λem=620 nm and λem=665 nm using a microplate reader (Envision, Perkin Elmer). The enzyme activity was determined by d ividing the signal measured at 665 nm by that measured at 620 nm (ratio). The results are expressed as a percent inhibition of the control enzyme activity. The standard inhibitory reference compound is staurosporine when not differently indicated (see tabl e below), which has been tested in each experiment at several concentrations to obtain an inhibition curve from which its IC 50 value is calculated.
(§4) • Assay volume and format: 10 µL in 384-well plate
(§5) • Compound addition: [100x] solution in solvent then [5x] solution in water • Maximum tolerable DMSO concentration: 1%

Another test addresses IRK (h) (InsR) (Homo sapiens, UniProt P06213). Kind of test: Kinase inhibitory assay (panel). The format is biochemical. The conditions noted are these: read-out: % inhibition at 10 µM. The protocol:
as §1, §2, §3, §4, §5

In a further test the target is PKCbeta 2 (h) (Homo sapiens, UniProt P05771). Kind of test: Kinase inhibitory assay (panel). The conditions noted are these: read-out: % inhibition at 10 µM. The class given is biochemical. The protocol: as §1, §2, §3, §4, §5
For another test, the target named is RAF-1 kinase (h) (Homo sapiens, UniProt P04049). Put plainly: Kinase inhibitory assay (panel). The class given is biochemical. The conditions noted are these: read-out: % inhibition at 10 µM. As to the method: as §1, §2, §3, §4, §5
The next test deals with Src kinase (h) (Homo sapiens, UniProt P12931). Kind of test: Kinase inhibitory assay (panel). The class given is biochemical. To be noted: read-out: % inhibition at 10 µM. The protocol:
as §1, §2, §3, §4, §5

The target in the next test is TRKA (h) (Homo sapiens, UniProt P04629). Kind of test: Kinase inhibitory assay (panel). The format is biochemical. To be noted: read-out: % inhibition at 10 µM. As to the method:
as §1, §2, §3, §4, §5

In another test the target is Abl kinase (h) (Homo sapiens, UniProt P00519). Put plainly: Kinase inhibitory assay (panel). The class given is biochemical. The conditions noted are these: read-out: % inhibition at 10 µM. As to the method:
as §1, §2, §3, §4, §5

Another test addresses Akt1/PKBalpha (h) (Homo sapiens, UniProt P31749). Put plainly: Kinase inhibitory assay (panel). To be noted: read-out: % inhibition at 10 µM. The class given is biochemical. As to the method: as §1, §2, §3, §4, §5
The next test has as its target AurA/Aur2 kinase (h) (Homo sapiens, UniProt O14965). Put plainly: Kinase inhibitory assay (panel). The class given is biochemical. To be noted: read-out: % inhibition at 10 µM. The protocol:
as §1, §2, §3, §4, §5

A further test deals with CDC2/CDK1 (h) (cycB) (Homo sapiens, UniProt P06493). Kind of test: Kinase inhibitory assay (panel). The format is biochemical. The conditions noted are these: read-out: % inhibition at 10 µM. As to the method:
as §1, §2, §3, §4, §5

The next test concerns the target CHK2 (h) (Homo sapiens, UniProt O96017). Put plainly: Kinase inhibitory assay (panel). The format is biochemical. To be noted: read-out: % inhibition at 10 µM. As to the method: as §1, §2, §3, §4, §5
The target of the next test is CaMK2alpha (h) (Homo sapiens, UniProt Q9UQM7). Put plainly: Kinase inhibitory assay (panel). The class given is biochemical. To be noted: read-out: % inhibition at 10 µM. As to the method:
as §1, §2, §3, §4, §5

The target in a further test is EGFR kinase (h) (Homo sapiens, UniProt P00533). Put plainly: Kinase inhibitory assay (panel). The format is biochemical. To be noted: read-out: % inhibition at 10 µM. As to the method: as §1, §2, §3, §4, §5
A further test has as its target ERK2 (h) (P42mapk) (Homo sapiens, UniProt P28482). Put plainly: Kinase inhibitory assay (panel). The class given is biochemical. To be noted: read-out: % inhibition at 10 µM. The protocol: as §1, §2, §3, §4, §5
The next test deals with EphA3 kinase (h) (Homo sapiens, UniProt P29320). Put plainly: Kinase inhibitory assay (panel). The class given is biochemical. To be noted: read-out: % inhibition at 10 µM. As to the method: as §1, §2, §3, §4, §5
The target in a further test is GSK3beta (h) (Homo sapiens, UniProt P49841). Put plainly: Kinase inhibitory assay (panel). To be noted: read-out: % inhibition at 10 µM. The class given is biochemical. The protocol:
as §1, §2, §3, §4, §5

A further test deals with PAK4 (h) (Homo sapiens, UniProt O96013). Kind of test: Kinase inhibitory assay (panel). The conditions noted are these: read-out: % inhibition at 10 µM. The format is biochemical. The protocol:
as §1, §2, §3, §4, §5

The next test deals with PDK1 (h) (Homo sapiens, UniProt O15530). Put plainly: Kinase inhibitory assay (panel). The class given is biochemical. The conditions noted are these: read-out: % inhibition at 10 µM. The protocol: as §1, §2, §3, §4, §5
The target in a further test is PKA (h) (Homo sapiens, UniProt P17612). Put plainly: Kinase inhibitory assay (panel). To be noted: read-out: % inhibition at 10 µM. The format is biochemical. As to the method:
as §1, §2, §3, §4, §5

The target of a further test is Pim2 kinase (h) (Homo sapiens, UniProt Q9P1W9). Kind of test: Kinase inhibitory assay (panel). The class given is biochemical. To be noted: read-out: % inhibition at 10 µM. As to the method: as §1, §2, §3, §4, §5
Another test concerns the target SIK (h) (Homo sapiens, UniProt P57059). Kind of test: Kinase inhibitory assay (panel). The conditions noted are these: read-out: % inhibition at 10 µM. The class given is biochemical. The protocol:
as §1, §2, §3, §4, §5

Another test deals with c-Met kinase (h) (Homo sapiens, UniProt P08581). Put plainly: Kinase inhibitory assay (panel). The format is biochemical. To be noted: read-out: % inhibition at 10 µM. As to the method:
as §1, §2, §3, §4, §5

T1 sequence (P26358 whole entry): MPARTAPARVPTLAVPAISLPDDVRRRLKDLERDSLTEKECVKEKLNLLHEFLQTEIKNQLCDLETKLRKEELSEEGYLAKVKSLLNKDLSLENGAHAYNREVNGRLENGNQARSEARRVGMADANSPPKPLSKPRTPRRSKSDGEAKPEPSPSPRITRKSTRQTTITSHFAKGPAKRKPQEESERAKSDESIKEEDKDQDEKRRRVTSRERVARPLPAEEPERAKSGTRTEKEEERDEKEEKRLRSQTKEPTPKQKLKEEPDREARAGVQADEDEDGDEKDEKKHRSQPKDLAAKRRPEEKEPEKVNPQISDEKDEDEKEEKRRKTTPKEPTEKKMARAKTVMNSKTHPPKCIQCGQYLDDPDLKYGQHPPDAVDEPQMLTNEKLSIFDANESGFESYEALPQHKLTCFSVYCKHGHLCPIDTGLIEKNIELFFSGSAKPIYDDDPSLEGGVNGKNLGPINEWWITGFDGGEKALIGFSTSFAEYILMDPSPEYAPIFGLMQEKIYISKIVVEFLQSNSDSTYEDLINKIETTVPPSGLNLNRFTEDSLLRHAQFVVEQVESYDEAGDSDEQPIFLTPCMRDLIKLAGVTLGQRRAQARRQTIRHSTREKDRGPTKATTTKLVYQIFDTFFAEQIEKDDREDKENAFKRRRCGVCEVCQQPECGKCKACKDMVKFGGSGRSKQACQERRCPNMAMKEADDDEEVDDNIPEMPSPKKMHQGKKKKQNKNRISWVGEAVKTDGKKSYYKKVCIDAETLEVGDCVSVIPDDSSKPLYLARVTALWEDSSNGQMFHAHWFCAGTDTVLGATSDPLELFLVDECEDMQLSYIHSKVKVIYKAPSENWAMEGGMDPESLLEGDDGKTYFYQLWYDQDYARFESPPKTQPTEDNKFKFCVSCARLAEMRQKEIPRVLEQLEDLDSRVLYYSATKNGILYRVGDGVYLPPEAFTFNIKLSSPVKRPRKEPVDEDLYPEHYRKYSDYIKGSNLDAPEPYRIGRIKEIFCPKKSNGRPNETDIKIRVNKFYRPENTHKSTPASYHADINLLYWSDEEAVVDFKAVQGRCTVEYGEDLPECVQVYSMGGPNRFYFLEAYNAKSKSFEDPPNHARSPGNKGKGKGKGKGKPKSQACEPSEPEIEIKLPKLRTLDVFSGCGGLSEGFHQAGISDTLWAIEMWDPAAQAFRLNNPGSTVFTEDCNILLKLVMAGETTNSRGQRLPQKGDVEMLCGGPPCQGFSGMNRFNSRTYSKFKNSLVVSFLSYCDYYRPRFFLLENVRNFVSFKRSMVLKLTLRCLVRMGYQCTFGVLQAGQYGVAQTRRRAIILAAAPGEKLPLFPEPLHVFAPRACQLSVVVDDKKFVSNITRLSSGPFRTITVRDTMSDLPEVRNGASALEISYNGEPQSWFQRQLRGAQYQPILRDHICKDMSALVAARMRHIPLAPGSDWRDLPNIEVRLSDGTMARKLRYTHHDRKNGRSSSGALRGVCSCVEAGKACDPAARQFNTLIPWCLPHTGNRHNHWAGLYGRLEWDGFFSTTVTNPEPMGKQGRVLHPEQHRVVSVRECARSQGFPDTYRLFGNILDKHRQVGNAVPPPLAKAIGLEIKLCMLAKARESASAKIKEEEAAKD
IRK (h) (InsR), sequence (P06213 28-1382): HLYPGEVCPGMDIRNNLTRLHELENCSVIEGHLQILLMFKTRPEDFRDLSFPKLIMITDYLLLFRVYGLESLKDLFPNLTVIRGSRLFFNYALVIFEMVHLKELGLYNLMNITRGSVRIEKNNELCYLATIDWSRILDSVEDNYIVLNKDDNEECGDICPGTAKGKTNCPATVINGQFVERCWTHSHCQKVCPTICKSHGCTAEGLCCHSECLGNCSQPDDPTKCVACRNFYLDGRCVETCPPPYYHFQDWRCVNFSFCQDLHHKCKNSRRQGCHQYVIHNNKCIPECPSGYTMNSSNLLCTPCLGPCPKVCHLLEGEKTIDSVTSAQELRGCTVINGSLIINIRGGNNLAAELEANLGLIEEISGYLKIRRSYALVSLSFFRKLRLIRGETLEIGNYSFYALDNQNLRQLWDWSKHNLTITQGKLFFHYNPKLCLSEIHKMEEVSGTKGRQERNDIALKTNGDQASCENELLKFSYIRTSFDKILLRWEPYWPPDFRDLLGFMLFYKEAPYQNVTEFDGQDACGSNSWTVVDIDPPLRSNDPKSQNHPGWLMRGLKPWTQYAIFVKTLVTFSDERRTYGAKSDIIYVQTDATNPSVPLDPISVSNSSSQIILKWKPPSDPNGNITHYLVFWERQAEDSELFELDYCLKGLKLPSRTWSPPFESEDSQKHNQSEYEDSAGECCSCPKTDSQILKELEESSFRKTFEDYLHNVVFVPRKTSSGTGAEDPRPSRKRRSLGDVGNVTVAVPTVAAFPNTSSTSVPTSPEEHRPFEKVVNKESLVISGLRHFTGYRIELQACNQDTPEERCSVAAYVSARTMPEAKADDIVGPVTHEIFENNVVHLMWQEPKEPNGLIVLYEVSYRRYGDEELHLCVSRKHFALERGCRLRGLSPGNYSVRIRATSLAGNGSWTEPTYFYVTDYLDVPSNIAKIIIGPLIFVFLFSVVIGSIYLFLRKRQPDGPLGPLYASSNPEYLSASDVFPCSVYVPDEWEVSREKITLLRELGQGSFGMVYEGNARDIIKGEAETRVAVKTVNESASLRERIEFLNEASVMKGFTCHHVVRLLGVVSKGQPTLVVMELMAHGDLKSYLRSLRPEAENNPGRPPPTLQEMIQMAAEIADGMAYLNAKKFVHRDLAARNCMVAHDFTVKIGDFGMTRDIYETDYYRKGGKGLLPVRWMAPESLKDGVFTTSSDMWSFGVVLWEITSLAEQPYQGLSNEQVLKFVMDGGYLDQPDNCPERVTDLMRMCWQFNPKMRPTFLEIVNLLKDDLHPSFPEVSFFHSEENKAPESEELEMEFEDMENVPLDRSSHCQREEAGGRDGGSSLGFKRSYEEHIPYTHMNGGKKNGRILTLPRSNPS
RAF-1 kinase (h), sequence (P04049 whole entry): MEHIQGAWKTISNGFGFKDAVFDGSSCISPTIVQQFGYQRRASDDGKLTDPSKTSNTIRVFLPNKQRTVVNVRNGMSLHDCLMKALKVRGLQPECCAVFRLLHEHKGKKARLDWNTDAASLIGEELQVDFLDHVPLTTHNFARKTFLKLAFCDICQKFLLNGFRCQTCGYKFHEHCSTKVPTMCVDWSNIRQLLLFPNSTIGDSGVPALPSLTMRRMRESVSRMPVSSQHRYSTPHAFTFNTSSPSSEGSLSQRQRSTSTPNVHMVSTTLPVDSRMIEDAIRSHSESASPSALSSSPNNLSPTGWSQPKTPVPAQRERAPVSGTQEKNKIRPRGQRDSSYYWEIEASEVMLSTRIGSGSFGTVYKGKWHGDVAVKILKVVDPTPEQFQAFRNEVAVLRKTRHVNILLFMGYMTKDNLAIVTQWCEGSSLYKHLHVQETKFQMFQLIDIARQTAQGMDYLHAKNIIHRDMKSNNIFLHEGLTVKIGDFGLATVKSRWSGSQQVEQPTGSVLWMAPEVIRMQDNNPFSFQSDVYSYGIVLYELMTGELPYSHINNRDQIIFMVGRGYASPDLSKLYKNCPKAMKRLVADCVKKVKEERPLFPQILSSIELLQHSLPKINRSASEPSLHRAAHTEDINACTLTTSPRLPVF
TRKA (h), sequence (P04629 33-796): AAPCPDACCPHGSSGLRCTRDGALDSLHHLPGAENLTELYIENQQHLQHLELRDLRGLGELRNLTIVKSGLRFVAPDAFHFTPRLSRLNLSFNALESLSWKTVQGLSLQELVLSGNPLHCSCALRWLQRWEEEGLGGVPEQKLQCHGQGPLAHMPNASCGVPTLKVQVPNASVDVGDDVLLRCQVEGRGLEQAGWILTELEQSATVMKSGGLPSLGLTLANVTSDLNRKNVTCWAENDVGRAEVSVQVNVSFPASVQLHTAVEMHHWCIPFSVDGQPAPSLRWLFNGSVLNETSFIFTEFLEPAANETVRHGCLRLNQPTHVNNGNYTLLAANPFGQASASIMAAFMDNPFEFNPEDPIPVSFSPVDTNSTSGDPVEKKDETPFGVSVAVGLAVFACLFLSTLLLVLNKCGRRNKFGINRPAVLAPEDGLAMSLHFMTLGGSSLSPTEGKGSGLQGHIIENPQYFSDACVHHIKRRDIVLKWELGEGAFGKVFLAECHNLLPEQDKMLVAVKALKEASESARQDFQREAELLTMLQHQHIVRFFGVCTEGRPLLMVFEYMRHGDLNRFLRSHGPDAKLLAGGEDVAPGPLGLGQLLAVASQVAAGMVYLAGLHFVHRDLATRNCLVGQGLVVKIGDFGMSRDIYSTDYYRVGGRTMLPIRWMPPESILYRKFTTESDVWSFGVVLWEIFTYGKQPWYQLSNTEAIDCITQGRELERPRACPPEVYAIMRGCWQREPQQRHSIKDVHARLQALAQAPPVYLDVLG
Src kinase (h), sequence (P12931 whole entry): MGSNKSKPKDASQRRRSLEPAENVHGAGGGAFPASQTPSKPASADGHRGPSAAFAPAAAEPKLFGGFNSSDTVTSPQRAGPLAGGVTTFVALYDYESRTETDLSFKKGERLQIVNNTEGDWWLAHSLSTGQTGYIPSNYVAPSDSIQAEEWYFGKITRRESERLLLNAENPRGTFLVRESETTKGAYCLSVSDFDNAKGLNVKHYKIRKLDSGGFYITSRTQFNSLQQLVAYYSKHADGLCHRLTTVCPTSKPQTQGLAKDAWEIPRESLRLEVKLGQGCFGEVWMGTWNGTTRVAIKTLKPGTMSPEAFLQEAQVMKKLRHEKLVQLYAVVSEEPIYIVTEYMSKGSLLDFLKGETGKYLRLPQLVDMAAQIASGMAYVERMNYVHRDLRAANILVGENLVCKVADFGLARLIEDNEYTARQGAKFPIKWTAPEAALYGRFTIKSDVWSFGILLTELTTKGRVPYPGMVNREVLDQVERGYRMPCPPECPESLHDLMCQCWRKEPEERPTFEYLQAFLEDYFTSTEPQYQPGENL

As to `O=C(Nc1cccc(Nc2ccnc3ccccc23)c1)c1ccc(Nc2ccnc3ccccc23)cc1` [Compound 2c], the “pUCHL1 demethylation, EGFP-positive cells (FACS R1)” value in test [1] (HCT116, 0.1 µM) is 42.3%.

Take `O=C(Nc1cccc(NC(=O)c2ccc(Nc3ccnc4ccccc34)cc2)c1)OCc1ccccc1` [Compound 4c]: the “pUCHL1 demethylation, EGFP-positive cells (FACS R1)” value in test [1] (HCT116, 0.5 µM) stood at 58.7%. In addition, the “DNMT1 protein level (western blot)” value at DNMT1 protein is given as “decrease”. Besides, at DNMT1 protein (co-treated with bortezomib 10 nM), the “DNMT1 protein level (western blot) with bortezomib” value is “rescued”.

Usually inhibition stands for the change of the read-out against control, counted positive when it falls. Consider `O=C(Nc1cccc(Nc2ccnc3ccccc23)c1)c1cccc(Nc2ccnc3ccccc23)c1` [Compound 2b], for which the “DNMT1 protein level (western blot)” value at DNMT1 protein is “decrease”. Moreover, the inhibition at 10 µM at IKKalpha (h) is 70%; at IRK (h) (InsR), 86%; on PKCbeta 2 (h), 79%; on RAF-1 kinase (h), 79%; at Src kinase (h) it was 94%; at TRKA (h), 98%.

`O=C(Nc1ccc(Nc2ccnc3ccccc23)cc1)c1cccc(Nc2ccnc3ccccc23)c1` [Compound 2a]: the inhibition at 10 µM at Abl kinase (h) was 0%; on Akt1/PKBalpha (h), -178%; at AurA/Aur2 kinase (h), -20%; on CDC2/CDK1 (h) (cycB) it was 16%; on CHK2 (h), -195%; on CaMK2alpha (h) it was -99%. Further, the inhibition at 10 µM at EGFR kinase (h) is 36%; on ERK2 (h) (P42mapk), 9%; on EphA3 kinase (h), -57%; at GSK3beta (h), -72%; at IKKalpha (h) it was 70%; on IRK (h) (InsR), 86%. In addition, the inhibition at 10 µM at PAK4 (h) is -17%; on PDK1 (h), -169%; at PKA (h), 26%; on PKCbeta 2 (h), 79%; at Pim2 kinase (h) it was -51%; at RAF-1 kinase (h), 79%. Moreover, the inhibition at 10 µM on SIK (h) was 22%; at Src kinase (h), 94%; on TRKA (h), 98%; at c-Met kinase (h) it was -54%.

The record behind these values is article PMC7073229, “Novel Quinoline Compounds Active in Cancer Cells through Coupled DNA Methyltransferase Inhibition and Degradation” (Cancers, 2020).
